The source of these data is ChEMBL document CHEMBL4610050, “Development of novel NLRP3-XOD dual inhibitors for the treatment of gout” (Bioorg Med Chem Lett, 2020).

The source made the active and inactive calls. The calls are words filed in the database; no cut-off is given here. A value given as a limit tells only on which side of the number the result lay.

Data set [1] has as its target T1, Xanthine dehydrogenase/oxidase (Homo sapiens, UniProt P47989). As to the kind of experiment: Inhibition of xanthine oxidase (unknown origin).
For data set [2], the target named is NACHT, LRR and PYD domains-containing protein 3 (Homo sapiens, UniProt Q96P20). As to the kind of experiment: Inhibition of NLRP3 in human THP1 cells assessed as inhibition of MSU-induced IL-1beta production. It is filed as cell-based, THP-1.
Data set [3] can be described thus: Cytotoxicity against human THP-1 cells. Format: cell-based.
The species named for data set [4] is Rattus norvegicus. As to the kind of experiment: Antiarthritic activity against MSU-induced acute gout arthritis rat model assessed as degree of ankle joint swelling after 2 hrs (reference value: 7.5 +/- 1.6). Format: functional.
The species entered for data set [5] is Rattus norvegicus. As to the kind of experiment: Antiarthritic activity against MSU-induced acute gout arthritis rat model assessed as degree of ankle joint swelling after 4 hrs (reference value: 8.8 +/- 1.7). Format: functional.
Data set [6] is filed under the species Rattus norvegicus. As to the kind of experiment: Antiarthritic activity against MSU-induced acute gout arthritis rat model assessed as degree of ankle joint swelling after 8 hrs (reference value: 7.8 +/- 1.6). It is filed as functional.
The species entered for data set [7] is Rattus norvegicus. As to the kind of experiment: Antiarthritic activity against MSU-induced acute gout arthritis rat model assessed as degree of ankle joint swelling after 24 hrs (reference value: 5.6 +/- 1.8). It is filed as functional.
For data set [8], the species on record is Rattus norvegicus. Nature of the data set: Antiarthritic activity in rat at model of acute gout arthritis assessed as effect on MSU-induced ankle joint swelling after 24 hrs (reference value: 5.6 +/- 1.8). It is filed as functional.
The species entered for data set [9] is Rattus norvegicus. Nature of the data set: Antiarthritic activity against MSU-induced acute gout arthritis rat model assessed as degree of ankle joint swelling after 48 hrs (reference value: 3.4 +/- 0.5). Format: functional.
The subject of data set [10] is Rattus norvegicus. Nature of the data set: Inhibition of MSU-induced NLRP3 protein expression in synovial tissue of MSU-induced acute gout arthritis rat model at 10 mg/kg by western blot analysis. Format: functional, organism-based.
The subject of data set [11] is Rattus norvegicus. As to the kind of experiment: Inhibition of MSU-induced ASC protein expression in synovial tissue of MSU-induced acute gout arthritis rat model at 10 mg/kg by western blot analysis. Format: functional, organism-based.
The test system of data set [12] is Rattus norvegicus. As to the kind of experiment: Inhibition of MSU-induced caspase-1 protein expression in synovial tissue of MSU-induced acute gout arthritis rat model at 10 mg/kg by western blot analysis. It is filed as functional, organism-based.
The test system of data set [13] is Mus musculus. As to the kind of experiment: Antiarthritic activity in potassium oxonate-induced hyperuricemia mouse model assessed as reduction in uric acid level in serum at 10 mg/kg. Format: functional, organism-based.
Data set [14] has as its system Mus musculus. Nature of the data set: In vivo inhibition of xanthine oxidase in potassium oxonate-induced hyperuricemia mouse model assessed as reduction enzyme activity in liver at 10 mg/kg relative to control. Format: functional.
Data set [15] concerns Mus musculus. As to the kind of experiment: In vivo inhibition of xanthine oxidase in mouse assessed as reduction in enzyme activity in liver at 10 mg/kg relative to control. It is filed as functional.
Data set [16] addresses T1, Xanthine dehydrogenase/oxidase. As to the kind of experiment: Competitive inhibition of xanthine oxidase (unknown origin) by Lineweaver-Burk plot analysis.
For data set [17], the system named is Mus musculus. Nature of the data set: Antiarthritic activity in potassium oxonate-induced hyperuricemia mouse model assessed as reduction in uric acid level in serum at 5 to 20 mg/kg. It is filed as functional, organism-based.
Data set [18] has as its system Mus musculus. As to the kind of experiment: In vivo inhibition of xanthine oxidase in potassium oxonate-induced hyperuricemia mouse model assessed as reduction in enzyme activity in liver at 5 mg/kg relative to control. It is filed as functional.
Data set [19] relates to Mus musculus. As to the kind of experiment: In vivo inhibition of xanthine oxidase in potassium oxonate-induced hyperuricemia mouse model assessed as reduction in enzyme activity in liver at 20 mg/kg relative to control. Format: functional.
The subject of data set [20] is Rattus norvegicus. As to the kind of experiment: Antiarthritic activity against MSU-induced acute gout arthritis rat model assessed as degree of ankle joint swelling at 5 mg/kg after 2 hrs (reference value: 7.5 +/- 1.6). It is filed as functional.
Data set [21] relates to Rattus norvegicus. Nature of the data set: Antiarthritic activity against MSU-induced acute gout arthritis rat model assessed as degree of ankle joint swelling at 10 mg/kg after 2 hrs (reference value: 7.5 +/- 1.6). It is filed as functional.
For data set [22], the system named is Rattus norvegicus. Nature of the data set: Antiarthritic activity against MSU-induced acute gout arthritis rat model assessed as degree of ankle joint swelling at 20 mg/kg after 2 hrs (reference value: 7.5 +/- 1.6). It is filed as functional.
Data set [23] has as its system Rattus norvegicus. Nature of the data set: Antiarthritic activity against MSU-induced acute gout arthritis rat model assessed as degree of ankle joint swelling at 5 mg/kg after 4 hrs (reference value: 8.8 +/- 1.7). Format: functional.
The subject of data set [24] is Rattus norvegicus. Nature of the data set: Antiarthritic activity against MSU-induced acute gout arthritis rat model assessed as degree of ankle joint swelling at 10 mg/kg after 4 hrs (reference value: 8.8 +/- 1.7). It is filed as functional.
In data set [25] the test system is Rattus norvegicus. As to the kind of experiment: Antiarthritic activity against MSU-induced acute gout arthritis rat model assessed as degree of ankle joint swelling at 20 mg/kg after 4 hrs (reference value: 8.8 +/- 1.7). Format: functional.
For data set [26], the system named is Rattus norvegicus. As to the kind of experiment: Antiarthritic activity against MSU-induced acute gout arthritis rat model assessed as degree of ankle joint swelling at 5 mg/kg after 8 hrs (reference value: 7.8 +/- 1.6). Format: functional.
Data set [27] deals with Rattus norvegicus. As to the kind of experiment: Antiarthritic activity against MSU-induced acute gout arthritis rat model assessed as degree of ankle joint swelling at 10 mg/kg after 8 hrs (reference value: 7.8 +/- 1.6). It is filed as functional.
Data set [28] has as its system Rattus norvegicus. Nature of the data set: Antiarthritic activity against MSU-induced acute gout arthritis rat model assessed as degree of ankle joint swelling at 20 mg/kg after 8 hrs (reference value: 7.8 +/- 1.6). Format: functional.
Data set [29] concerns Rattus norvegicus. As to the kind of experiment: Antiarthritic activity against MSU-induced acute gout arthritis rat model assessed as degree of ankle joint swelling at 5 mg/kg after 12 hrs (reference value: 6.6 +/- 1.5). It is filed as functional.
The subject of data set [30] is Rattus norvegicus. Nature of the data set: Antiarthritic activity against MSU-induced acute gout arthritis rat model assessed as degree of ankle joint swelling at 10 mg/kg after 12 hrs (reference value: 6.6 +/- 1.5). Format: functional.
Data set [31] has as its system Rattus norvegicus. Nature of the data set: Antiarthritic activity against MSU-induced acute gout arthritis rat model assessed as degree of ankle joint swelling at 20 mg/kg after 12 hrs (reference value: 6.6 +/- 1.5). Format: functional.
Data set [32] deals with Rattus norvegicus. Nature of the data set: Antiarthritic activity against MSU-induced acute gout arthritis rat model assessed as degree of ankle joint swelling at 5 mg/kg after 24 hrs (reference value: 5.6 +/- 1.8). It is filed as functional.
The subject of data set [33] is Rattus norvegicus. As to the kind of experiment: Antiarthritic activity against MSU-induced acute gout arthritis rat model assessed as degree of ankle joint swelling at 10 mg/kg after 24 hrs (reference value: 5.6 +/- 1.8). Format: functional.
In data set [34] the test system is Rattus norvegicus. Nature of the data set: Antiarthritic activity against MSU-induced acute gout arthritis rat model assessed as degree of ankle joint swelling at 20 mg/kg after 24 hrs (reference value: 5.6 +/- 1.8). Format: functional.
In data set [35] the test system is Rattus norvegicus. Nature of the data set: Antiarthritic activity against MSU-induced acute gout arthritis rat model assessed as degree of ankle joint swelling at 5 mg/kg after 48 hrs (reference value: 3.4 +/- 0.5). It is filed as functional.
Data set [36] deals with Rattus norvegicus. As to the kind of experiment: Antiarthritic activity against MSU-induced acute gout arthritis rat model assessed as degree of ankle joint swelling at 10 mg/kg after 48 hrs (reference value: 3.4 +/- 0.5). Format: functional.
Data set [37] has as its system Rattus norvegicus. As to the kind of experiment: Antiarthritic activity against MSU-induced acute gout arthritis rat model assessed as degree of ankle joint swelling at 20 mg/kg after 48 hrs (reference value: 3.4 +/- 0.5). Format: functional.
Data set [38] is filed under the species Rattus norvegicus. Nature of the data set: Down regulation of MSU-induced NLRP3 protein expression in synovial tissue of MSU-induced acute gout arthritis rat model by western blot analysis. Format: functional, organism-based.
For data set [39], the species on record is Rattus norvegicus. As to the kind of experiment: Down regulation of MSU-induced ASC protein expression in synovial tissue of MSU-induced acute gout arthritis rat model by western blot analysis. It is filed as functional, organism-based.
The species named for data set [40] is Rattus norvegicus. As to the kind of experiment: Down regulation of MSU-induced caspase-1 protein expression in synovial tissue of MSU-induced acute gout arthritis rat model by western blot analysis. Format: functional, organism-based.
Data set [41] has as its system Mus musculus. As to the kind of experiment: In vivo inhibition of xanthine oxidase in mouse assessed as reduction of enzyme activity in liver at 5 mg/kg relative to control. Format: functional.
Data set [42] relates to Mus musculus. As to the kind of experiment: In vivo inhibition of xanthine oxidase in mouse assessed as reduction in enzyme activity in liver at 20 mg/kg relative to control. It is filed as functional.

T1 sequence (P47989 whole entry, the tested form may be a part): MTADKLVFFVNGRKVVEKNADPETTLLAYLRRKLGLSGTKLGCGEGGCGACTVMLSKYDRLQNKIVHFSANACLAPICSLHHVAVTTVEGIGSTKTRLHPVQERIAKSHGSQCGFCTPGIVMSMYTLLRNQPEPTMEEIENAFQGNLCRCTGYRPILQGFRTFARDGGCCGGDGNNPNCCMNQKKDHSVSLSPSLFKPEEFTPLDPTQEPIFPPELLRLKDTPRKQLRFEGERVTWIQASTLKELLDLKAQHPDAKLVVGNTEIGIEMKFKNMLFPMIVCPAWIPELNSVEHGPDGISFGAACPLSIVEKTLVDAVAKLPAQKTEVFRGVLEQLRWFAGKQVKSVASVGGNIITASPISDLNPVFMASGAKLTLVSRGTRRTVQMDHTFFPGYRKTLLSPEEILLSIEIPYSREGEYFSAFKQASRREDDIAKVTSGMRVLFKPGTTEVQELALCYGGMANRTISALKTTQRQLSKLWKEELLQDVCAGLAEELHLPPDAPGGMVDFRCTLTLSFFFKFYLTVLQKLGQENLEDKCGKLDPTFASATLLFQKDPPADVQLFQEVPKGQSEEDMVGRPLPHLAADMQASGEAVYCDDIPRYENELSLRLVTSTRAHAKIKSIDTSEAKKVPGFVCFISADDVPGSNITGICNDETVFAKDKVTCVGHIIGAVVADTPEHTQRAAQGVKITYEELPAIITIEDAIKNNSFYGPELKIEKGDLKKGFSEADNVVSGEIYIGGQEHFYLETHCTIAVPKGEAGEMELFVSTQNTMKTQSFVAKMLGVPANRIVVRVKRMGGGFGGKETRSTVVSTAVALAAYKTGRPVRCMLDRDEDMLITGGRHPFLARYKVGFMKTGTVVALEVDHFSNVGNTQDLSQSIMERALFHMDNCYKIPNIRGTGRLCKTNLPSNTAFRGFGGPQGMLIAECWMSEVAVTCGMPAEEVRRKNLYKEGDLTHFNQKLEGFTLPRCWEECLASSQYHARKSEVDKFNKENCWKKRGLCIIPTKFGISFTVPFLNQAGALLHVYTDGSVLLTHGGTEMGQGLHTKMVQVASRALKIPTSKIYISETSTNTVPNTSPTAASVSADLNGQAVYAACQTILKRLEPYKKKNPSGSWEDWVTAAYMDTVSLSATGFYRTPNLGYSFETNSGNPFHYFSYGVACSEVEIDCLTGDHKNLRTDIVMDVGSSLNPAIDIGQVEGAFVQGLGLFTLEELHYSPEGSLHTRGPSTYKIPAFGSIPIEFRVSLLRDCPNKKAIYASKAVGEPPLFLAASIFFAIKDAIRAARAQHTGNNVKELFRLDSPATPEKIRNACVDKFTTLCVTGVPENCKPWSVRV
NACHT, LRR and PYD domains-containing protein 3, sequence (Q96P20 whole entry, the tested form may be a part): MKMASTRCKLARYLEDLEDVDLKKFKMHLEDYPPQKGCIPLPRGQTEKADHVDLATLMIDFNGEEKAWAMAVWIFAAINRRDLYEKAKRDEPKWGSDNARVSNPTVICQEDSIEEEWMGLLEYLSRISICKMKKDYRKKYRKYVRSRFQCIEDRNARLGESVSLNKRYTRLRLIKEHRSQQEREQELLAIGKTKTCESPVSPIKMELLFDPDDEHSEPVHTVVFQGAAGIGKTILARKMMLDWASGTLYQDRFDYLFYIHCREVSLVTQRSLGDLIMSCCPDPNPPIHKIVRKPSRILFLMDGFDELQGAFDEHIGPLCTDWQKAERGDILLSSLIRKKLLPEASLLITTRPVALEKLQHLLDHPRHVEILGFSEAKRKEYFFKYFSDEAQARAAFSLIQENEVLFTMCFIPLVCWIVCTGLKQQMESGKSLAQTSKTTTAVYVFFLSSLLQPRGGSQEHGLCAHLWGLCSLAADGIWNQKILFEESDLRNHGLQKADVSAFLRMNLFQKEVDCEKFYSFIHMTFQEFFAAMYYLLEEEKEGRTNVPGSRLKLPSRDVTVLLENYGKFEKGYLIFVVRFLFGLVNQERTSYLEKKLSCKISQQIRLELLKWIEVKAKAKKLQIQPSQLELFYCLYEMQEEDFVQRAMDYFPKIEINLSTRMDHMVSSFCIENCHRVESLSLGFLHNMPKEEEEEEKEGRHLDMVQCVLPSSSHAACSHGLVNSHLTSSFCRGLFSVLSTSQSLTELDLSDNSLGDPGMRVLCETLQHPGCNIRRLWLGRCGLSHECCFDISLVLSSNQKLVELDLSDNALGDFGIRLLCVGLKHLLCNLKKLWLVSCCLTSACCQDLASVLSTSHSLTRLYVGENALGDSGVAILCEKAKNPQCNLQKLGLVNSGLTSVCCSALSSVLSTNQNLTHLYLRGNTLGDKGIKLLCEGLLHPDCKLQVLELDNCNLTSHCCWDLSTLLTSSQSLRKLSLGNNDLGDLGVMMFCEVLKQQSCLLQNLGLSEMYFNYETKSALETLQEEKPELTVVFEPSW

Take `C/C(=N\NS(=O)(=O)c1ccccc1)c1nc2ccccc2[nH]1`: the IC50 in [1] was over 50 µM.
On the same count and under the same terms, then `C/C(=N\NS(=O)(=O)c1ccc([N+](=O)[O-])cc1)c1nc2ccccc2[nH]1`, with over 50 µM.
On the same count and under the same terms, then `C/C(=N\NS(=O)(=O)c1ccc([N+](=O)[O-])cc1)c1nc2ccccc2o1`, with over 50 µM.
For `O=C(/C=C/c1ccc(O)cc1)c1ccc(O)cc1O` [ISOLIQUIRITIGENIN], the 50% inhibitory concentration (IC50) in [2] worked out at 10.1 µM. In data set [3], this compound yielded a CC50 of 250 µM.
In the case of `C/C(=N\NS(=O)(=O)c1ccc(Br)cc1)c1nc2ccccc2o1`, in [1], the 50% inhibitory concentration (IC50) is over 50 µM.
In turn, `C/C(=N\NS(=O)(=O)c1cccc([N+](=O)[O-])c1)c1nc2ccccc2o1` came in with an IC50 in [1] of over 50 µM.
For `CCCCS(=O)(=O)N/N=C(\C)c1nc2ccccc2o1`, the 50% inhibitory concentration (IC50) in data set [1] is over 50 µM.
Same read-out and setting: then `C/C(=N\NS(=O)(=O)c1ccc(Br)cc1)c1nc2ccccc2[nH]1`, with over 50 µM; and `C/C(=N\OC(=O)Cc1ccccc1)c1nc2ccccc2[nH]1`, with over 50 µM.
`C/C(=N\NS(=O)(=O)c1ccccc1)c1nc2ccccc2o1`: the IC50 in data set [1] was over 50 µM.
Take `COc1cc2c(c(OC)c1OC)-c1ccc(OC)c(=O)cc1[C@@H](NC(C)=O)CC2` [COLCHICINE]: the Activity in [4] is reported as 4.9; in [5], 4.3; in [6], 4; in [7], 3.5; in data set [8], 2.8; in data set [9], 2. In addition, the inhibition entry in [10], in data set [11] and in data set [12] was “Active” in each case.
Turning to `Oc1ncnc2[nH]ncc12` [ALLOPURINOL], the outcome in data set [13] was Active. The figures for the inhibition in vivo at 10 mg/kg in data set [14] and in [15] were 47.9% and 25.3%, respectively.
In [1], `CCCS(=O)(=O)N/N=C(\C)c1nc2ccccc2[nH]1` registered an IC50 of over 50 µM.
Still for that read-out and setting: then `COc1ccc(S(=O)(=O)N/N=C(\C)c2nc3ccccc3[nH]2)cc1`, with over 50 µM.
Turning to `COc1ccc(S(=O)(=O)N/N=C(\C)c2nc3ccccc3o2)cc1`, the concentration for half-maximal inhibition (IC50) in [1] was 4.2 µM; in data set [2], 7.5 µM. The “inhibition (INH)” value in [16] is “Active”. Also, the outcome in [17] was Active. The inhibition in vivo at 5 mg/kg in [18] is 19.6%; in data set [41], 3.6%. The inhibition in vivo at 10 mg/kg was found to be 30.6% in data set [14] and 4.6% in data set [15]. Further, the inhibition in vivo at 20 mg/kg was found to be 44.1% in [19] and 7.6% in [42]. The Activity in data set [20] turned out to be 6.5; in [21], 6; in data set [22], 5.5; in [23], 6.8; in data set [24], 6.1; in data set [25] it was 5. Besides, the Activity in data set [26] came to 5.9; in [27], 5.4; in [28] it was 4.2; in data set [29], 6; in [30] it was 4.5; in data set [31] it was 3.9. Besides, the Activity in data set [32] was 4.9; in [33] it was 2.5; in data set [34] it was 2.2; in data set [35], 2.9; in [36], 1.8; in data set [37] it was 1.6. For the same compound, the inhibition result in data set [38], in [39] and in data set [40] was “Dose-dependent effect” throughout. The same compound showed a CC50 in [3] of 250 µM.
With `COc1ccc(C(=O)O/N=C(\C)c2nc3ccccc3[nH]2)cc1`, the half-inhibitory concentration (IC50) in data set [1] is over 50 µM.
Take `C/C(=N\NS(=O)(=O)c1ccc(C)cc1)c1nc2ccccc2o1`: the half-maximal cytotoxic concentration (CC50) in [3] stood at 250 µM.
